Test results published in US5750826A, “Bradykinin B2 receptor modified transgenic non-human animals” (Merck & Co., Inc., priority 1996, dated 1998).
Where no end group is shown, it is not given here.

Columns and labels:
[1] = molecular target: T1, human B2 bradykinin receptor (Homo sapiens, UniProt P30411); assay: Competition binding against 100 pM [3H]BK at the cloned human B2 receptor (COS-7)
T1 construct: placing the entire B2 clone under the control of the CMV promoter; expressed in transfected cells
T1 sequence (P30411 1-364 isoform P30411-2): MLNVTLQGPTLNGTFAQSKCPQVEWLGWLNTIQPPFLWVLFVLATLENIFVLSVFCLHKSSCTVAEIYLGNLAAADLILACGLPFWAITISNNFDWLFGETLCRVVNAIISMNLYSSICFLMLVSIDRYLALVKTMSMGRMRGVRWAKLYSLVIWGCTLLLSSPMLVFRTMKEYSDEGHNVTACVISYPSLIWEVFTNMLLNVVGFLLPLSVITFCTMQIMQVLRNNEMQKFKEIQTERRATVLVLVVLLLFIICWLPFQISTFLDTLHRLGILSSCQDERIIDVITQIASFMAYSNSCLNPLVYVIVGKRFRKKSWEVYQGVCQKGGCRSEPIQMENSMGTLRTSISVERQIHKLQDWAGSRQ
Description: (§1) In order to enable expression of the cDNA that encodes for the B2 bradykinin receptor, COS-7 cells were transfected using LIPOFECTIN (BRL, Gaithersburg, Md.) with 50ug/10^7 cells of the B2 receptor cDNA subcloned into the eukaryotic expression vector pcDNA I-Neo (Invitrogen). Cells were then harvested after 72 hours and the membranes containing the expressed receptor protein were prepared by scraping the cells in phosphate buffered saline solution and centrifuging for ten minutes at 500× g. The cell pellet was then resuspended and homogenized with a Polytron in 20 mM N-tris(hydroxymethyl)methyl-2-aminoethane sulfonic acid (TES,pH 6.8 at room temperature) buffer containing 1 mM 1, 10 phenanthroline. The homogenate was then centrifuged for ten minutes at 500 × g. The final membrane pellet was resuspended in assay buffer (TES plus 0.1% protease free bovine serum albumin, 5 uM MK-422 (enalaprilat; Gross et al., 1981) and 140 ug/ml bacitracin using a motor-driven teflon-glass tissue homogenizer. Protein determination was performed by the method of Bradford using bovine IgG as the standard. See Bradford, M.A. Anal. Biochem. 72, 248-254 (1976).
Binding assays were then performed to determine receptor antagonist or agonist interaction. The assays utilized in the instant invention follow the method of Manning et al., J. Pharmacol. Exp. Ther., 237, 504-512 (1986). […] (BRANDEL, Gaithersburg, Md.). The tubes were rinsed two times with 4 ml ice-cold […] and the filter bound radioactivity was quantitated by liquid scintillation counting. […] The competition and saturation experiments were analyzed using the EBDA program of McPherson. See McPherson, G.A. J Pharmacol. Methods 14, 213-218 (1985).

[2] = tested on: mock transfected COS-7 cells; assay: Binding of BK to membranes of mock transfected COS-7 cells; conditions: membranes from mock transfected COS-7 cells
Description: as §1, with “The final membrane pellet was resuspended in assay buffer (TES plus 0.1% protease free bovine serum albumin, 5 uM MK-422 (enalaprilat; Gross et al., 1981) and 140 ug/ml bacitracin using a motor-driven teflon-glass tissue homogenizer. Protein determination was performed by the method of Bradford using bovine IgG as the standard. See Bradford, M.A. Anal. Biochem. 72, 248-254 (1976).” left out
Binding assays were then performed to determine receptor antagonist or agonist interaction. […] The tubes were rinsed two times with 4 ml ice-cold […] and the filter bound radioactivity was quantitated by liquid scintillation counting. […] The competition and saturation experiments were analyzed using the EBDA program of McPherson. […]

[3] = molecular target: T2, mouse B2 bradykinin receptor (Mus musculus, UniProt P32299); assay: Competition binding using 100 pM [3H]BK at the expressed mouse B2 bradykinin receptor; conditions: expressed mouse B2 receptor, 100 pM [3H]BK
T2 construct: The PCR product begins 99 bp upstream of the initiator methionine codon and ends 49 bp downstream of the stop codon; expressed in transfected cells; host or cells: COS-7 (transient), pcDNAI-Neo
T2 sequence (P32299 1-366 isoform P32299-2): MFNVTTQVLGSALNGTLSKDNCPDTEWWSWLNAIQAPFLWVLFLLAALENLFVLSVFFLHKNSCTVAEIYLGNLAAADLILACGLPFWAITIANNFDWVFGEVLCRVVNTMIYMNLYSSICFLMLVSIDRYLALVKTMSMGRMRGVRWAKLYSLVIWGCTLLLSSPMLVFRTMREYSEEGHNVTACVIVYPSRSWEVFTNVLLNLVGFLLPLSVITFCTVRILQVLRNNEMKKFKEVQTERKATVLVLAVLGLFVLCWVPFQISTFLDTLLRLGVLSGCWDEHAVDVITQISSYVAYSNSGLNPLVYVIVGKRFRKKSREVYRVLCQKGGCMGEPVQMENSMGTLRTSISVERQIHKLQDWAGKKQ
Description: Binding assays were then performed to determine receptor antagonist or agonist interaction. The assays utilized in the instant invention follow the method of Manning et al., J. Pharmacol. Exp. Ther., 237, 504-512 (1986). [^3 H]BK at various concentrations was incubated for 60 minutes at 25° C. with approximately 50ug membrane protein from COS-7 cells in a volume of 1 ml. The assay was terminated by filtration over Whatman GF/B filters presoaked for 3 hours in 0.1 % polyethyleneimine using a BRANDEL M-24 CELL […] (BRANDEL, Gaithersburg, Md.). The tubes were rinsed two times with 4 ml ice-cold […] and the filter bound radioactivity was quantitated by liquid scintillation counting. Nonspecific binding was determined by performing incubation in the presence of 1 uM BK and generally represents less than 5% of the total binding at 100pM ^3 H]BK. Competition binding experiments, in the presence of 100pM[^3 H]BK, were performed with varying concentrations of the test compound(s). The competition and saturation experiments were analyzed using the EBDA program of McPherson. See McPherson, G.A. J Pharmacol. Methods 14, 213-218 (1985).
To verify the pharmacological properties of the mouse bradykinin B2 receptor the coding sequence of the mouse B2 bradykinin receptor was isolated by PCR (Perkin Elmer/Cetus) using a Techne thermocycler with the template being the EcoR I by Hind III genomic fragment in pSP72 and the 5' primer 5'-[…]-3' (SEQ.ID.NO.:8) and the 3' primer 5'- […]-3' (SEQ.ID.NO.:9). The PCR product was subcloned into the Hind III and Xba I sites of the eukaryotic expression vector pcDNAI-Neo (Invitrogen). The PCR product begins 99 bp upstream of the initiator methionine codon and ends 49 bp downstream of the stop codon. The DNA sequence analysis using Sequenase (US Biochemical) of the subcloned PCR product confirmed that the sequence was identical to that in the original genomic fragment.

rat vas deferens = conditions: cited from earlier work
guinea pig ileum mucosa = conditions: nanomolar concentrations, serosal surface; cited from earlier work
Swiss 3T3 fibroblasts = conditions: cited from earlier work
[4] = tested on: CPAE cells (bovine pulmonary artery endothelial cells); conditions: cited from earlier work

## RPPGFSPFR [BK]
[1]
  specificity of binding (rank order): BK>lys-BK>met-lys-BK
[2]
  BK specific binding sites: did not contain any detectable BK specific binding sites
[3]
  affinity: high (subnanomolar) affinity
Rat vas deferens; musculotropic/postjunctional action
  contraction of smooth muscle / muscle tone: contracted the smooth muscle generating an increased muscle tone
Rat vas deferens; neurogenic/presynaptic effect
  magnitude of the muscular response to electrically driven twitches: potentiated
Guinea pig ileum mucosa
  transepithelial potential difference (p.d.) and short circuit current (ISC): rapidly increased
Swiss 3T3 fibroblasts
  phospholipase C mediated InsP formation and PGE-2 synthesis: stimulated
[4]
  activity of phosphatidylcholine-specific PLC: stimulates
